Measurements as given in patent US20100010057A1, “THIAZOLE DERIVATIVES AS INHIBITORS OF P13 KINASE” (CHROMA THERAPEUTICS LTD., priority 2006, published 2010).

What was measured:
[1] = tested on: human whole blood; experiment: LPS-stimulation of human whole blood, TNF-α release; assay type: cell-based; conditions: LPS 100 ng/ml, 6 h, TNF-α by ELISA, IC50 range, read-out: Inhibitor activity versus human whole blood TNFα release
Protocol: (D) LPS-Stimulation of Human Whole Blood
Whole blood is taken by venous puncture using heparinised vacutainers (Becton Dickinson) and diluted in an equal volume of RPMI1640 tissue culture media (Sigma). 100 μl is plated in V-bottomed 96 well tissue culture treated plates. 2 h after the addition of the inhibitor in 100 μl of RPMI1640 media, the blood is stimulated with LPS (E. coli strain 005:B5, Sigma) at a final concentration of 100 ng/ml and incubated at 37° C. in 5% CO2 for 6 h. TNF-α levels are measured from cell-free supernatants by sandwich ELISA (R&D Systems #QTA00B)
(§1) For each of the assays (B), (C) and (D) above, IC50 values are allocated to one of three ranges as follows: […]

[2] = target: PI3Kγ (human) (Homo sapiens, UniProt P48736); experiment: Inhibition of PI3 kinase γ activity (HTRF); assay type: biochemical; conditions: ATP at or close to Km, IC50 range, read-out: Inhibitor activity versus PI3 Kinase γ
Protocol: (B) Inhibition of PI3 Kinase V Activity
In a final reaction volume of 20 μl, PI3Kγ (human) is incubated in assay buffer containing 10 μM phosphatidylinositol-4,5-bisphosphate and MgATP (concentration as required). The reaction is initiated by the addition of the MgATP mix. After incubation for 30 minutes at room temperature, the reaction is stopped by the addition of 5 μl of stop solution containing EDTA and biotinylated phosphatidylinositol-3,4,5-trisphosphate. Finally, 5 μl of detection buffer is added, which contains europium-labelled anti-GST monoclonal antibody, GST-tagged GRP1 PH domain and streptavidin-allophycocyanin. The plate is then read in time-resolved fluorescence mode and the homogenous time-resolved fluorescence (HTRF) signal is determined according to the formula HTRF=10000×(Em665 nm/Em620 nm).
Duplicate data points are generated from a ⅓ log dilution series of a stock solution of compound in DMSO. Nine dilutions steps are made from a top concentration of 10 μM, and a ‘no compound’ blank is included. The HTRF PI 3-Kinase assay is performed at an ATP concentration at, or close to, the Km. HTRF ratio data is transformed into % activity of controls and analysed with a four parameter sigmoidal dose-response (variable slope) application. QC criteria is based on Top, Bottom, Hill slope, r^2 and IC50, the concentration giving 50% inhibition, which is reported.
as §1

[3] = tested on: THP-1 cells; experiment: LPS-stimulation of THP-1 cells, TNF-α release; assay type: cell-based; conditions: Homo sapiens, LPS 1 μg/ml, 6 h, TNF-α by ELISA, IC50 range, read-out: Inhibitor activity versus THP-1 TNFα release
Protocol: (C) LPS-Stimulation of THP-1 Cells
THP-1 cells are plated in 100 μl at a density of 4×10^4 cells/well in V-bottomed 96 well tissue culture treated plates and incubated at 37° C. in 5% CO2 for 16 h. 2 h after the addition of the inhibitor in 100 μl of tissue culture media, the cells are stimulated with LPS (E. coli strain 005:B5, Sigma) at a final concentration of 1 μg/ml and incubated at 37° C. in 5% CO2 for 6 h. TNF-α levels are measured from cell-free supernatants by sandwich ELISA (R&D Systems #QTA00B)
as §1

PI3Kγ (human), sequence (P48736 whole entry): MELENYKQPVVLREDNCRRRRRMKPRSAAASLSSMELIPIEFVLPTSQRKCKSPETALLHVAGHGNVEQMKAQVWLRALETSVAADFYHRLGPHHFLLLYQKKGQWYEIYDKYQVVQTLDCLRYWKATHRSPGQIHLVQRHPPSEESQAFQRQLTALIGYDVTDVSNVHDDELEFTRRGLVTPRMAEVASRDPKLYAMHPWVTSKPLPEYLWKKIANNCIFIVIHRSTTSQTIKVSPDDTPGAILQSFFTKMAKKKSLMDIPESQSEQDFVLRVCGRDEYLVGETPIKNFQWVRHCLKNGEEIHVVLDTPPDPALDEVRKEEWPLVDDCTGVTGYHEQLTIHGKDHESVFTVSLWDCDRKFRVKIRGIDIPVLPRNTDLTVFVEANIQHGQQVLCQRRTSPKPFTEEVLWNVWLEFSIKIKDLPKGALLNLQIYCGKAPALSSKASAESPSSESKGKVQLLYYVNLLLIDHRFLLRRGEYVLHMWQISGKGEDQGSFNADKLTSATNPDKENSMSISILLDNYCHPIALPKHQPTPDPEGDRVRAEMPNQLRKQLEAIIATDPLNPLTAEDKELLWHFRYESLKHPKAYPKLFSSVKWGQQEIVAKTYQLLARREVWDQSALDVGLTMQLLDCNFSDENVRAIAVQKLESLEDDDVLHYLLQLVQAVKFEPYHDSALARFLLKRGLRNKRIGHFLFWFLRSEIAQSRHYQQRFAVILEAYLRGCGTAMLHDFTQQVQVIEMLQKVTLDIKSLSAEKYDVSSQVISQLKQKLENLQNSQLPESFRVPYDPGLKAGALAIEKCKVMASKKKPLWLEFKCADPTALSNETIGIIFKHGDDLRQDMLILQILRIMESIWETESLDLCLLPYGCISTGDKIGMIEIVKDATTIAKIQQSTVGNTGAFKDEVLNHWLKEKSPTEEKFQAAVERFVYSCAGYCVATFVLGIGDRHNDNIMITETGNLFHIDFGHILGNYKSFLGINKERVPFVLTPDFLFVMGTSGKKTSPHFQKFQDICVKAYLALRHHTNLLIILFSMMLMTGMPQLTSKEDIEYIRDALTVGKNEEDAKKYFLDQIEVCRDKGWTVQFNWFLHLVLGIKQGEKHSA

Row | IC50 [1] [µM] | IC50 [2] [µM] | IC50 [3] [µM] | Compound
1 |  | 0.1 to 1 | > 1 | CC(=O)Nc1nc(C)c(-c2ccc(Cl)c(S(=O)(=O)N[C@@H](COC(C)(C)C)C(=O)OC3CCCC3)c2)s1 [Example 21, Cyclopentyl N-{[5-(2-acetamido-4-methyl-3-thiazol-5-yl)-2-chlorophenyl]sulfonyl}-O-tert-butyl-L-serinate]
2 |  | > 1 | > 1 | CC(=O)Nc1nc(C)c(-c2ccc(Cl)c(S(=O)(=O)NCCN[C@@H](CC(C)C)C(=O)OC3CCCC3)c2)s1 [Example 22, Cyclopentyl N-[2-({[5-(2-acetamido-4-methyl-1,3-thiazol-5-yl)-2-chlorophenyl]sulfonyl}amino)ethyl]-L-leucinate]
3 |  | > 1 | > 1 | Cc1nc(NC(=O)N[C@@H](CO)C(=O)OC2CCCC2)sc1-c1ccc(Cl)c(S(C)(=O)=O)c1 [Example 23, Cyclopentyl N-({5-[4-chloro-3-(methylsulfonyl)phenyl]-4-methyl-1,3-thiazol-2-yl}carbamoyl)-L-serinate]
4 | 0.1 to 1 | > 1 | < 0.1 | Cc1nc(NC(=O)CCCN[C@@H](CO)C(=O)OC2CCCC2)sc1-c1ccc(Cl)c(S(C)(=O)=O)c1 [Example 24, Cyclopentyl N-[4-({5-[4-chloro-3-(methylsulfonyl)phenyl]-4-methyl-1,3-thiazol-2-yl}amino)-4-oxobutyl]-L-serinate]
5 |  | 0.1 to 1 | > 1 | CC(=O)Nc1nc(C)c(-c2ccc(Cl)c(S(=O)(=O)N[C@@H](CO)C(=O)OC3CCCC3)c2)s1 [Example 25, Cyclopentyl N-{[5-(2-acetamido-4-methyl-1,3-thiazol-5-yl)-2-chlorophenyl]sulfonyl}-L-serinate]
6 |  | < 0.1 | > 1 | Cc1nc(NC(=O)CCCN[C@@H](COP(=O)(O)O)C(=O)OC2CCCC2)sc1-c1ccc(Cl)c(S(C)(=O)=O)c1 [Example 26, Cyclopentyl N-[4-({5-[4-chloro-3-(methylsulfonyl)phenyl]-4-methyl-1,3-thiazol-2-yl}amino)-4-oxobutyl]-O-phosphono-L-serinate]

Second part, the molecule before the results:

Row | Compound | IC50 [1] [µM] | IC50 [2] [µM] | IC50 [3] [µM]
7 | Cc1nc(NC(=O)CCCN[C@@H](CC(C)C)C(=O)OC2CCCC2)sc1-c1ccc(Cl)c(S(C)(=O)=O)c1 [Example 6, Cyclopentyl N-[4-({5-[4-chloro-3-(methylsulfonyl)phenyl]-4-methyl-1,3-thiazol-2-yl}amino)-4-oxobutyl]-L-leucinate] | > 1 | 0.1 to 1 | 0.1 to 1
8 | Cc1nc(NC(=O)CCCN[C@@H](C)C(=O)OC2CCCC2)sc1-c1ccc(Cl)c(S(C)(=O)=O)c1 [Example 7, Cyclopentyl N-[4-({5-[4-chloro-3-(methylsulfonyl)phenyl]-4-methyl-1,3-thiazol-2-yl}amino)-4-oxobutyl]-L-alaninate] | 0.1 to 1 | > 1 | 0.1 to 1
9 | Cc1nc(NCCCN[C@@H](CC(C)C)C(=O)OC2CCCC2)sc1-c1ccc(Cl)c(S(C)(=O)=O)c1 [Example 17, Cyclopentyl N-[3-({5-[4-chloro-3-(methylsulfonyl)phenyl]-4-methyl-1,3-thiazol-2-yl}amino)propyl]-L-leucinate] |  | > 1 | > 1
10 | Cc1nc(NCC2CCC(N[C@@H](CC(C)C)C(=O)OC3CCCC3)CC2)sc1-c1ccc(Cl)c(S(C)(=O)=O)c1 (stereo partly drawn) [Example 18, Cyclopentyl N-{4-[({5-[4-chloro-3-(methylsulfonyl)phenyl]-4-methyl-1,3-thiazol-2-yl}amino)methyl]cyclohexyl}-L-leucinate] |  | > 1 | > 1
11 | Cc1nc(NCC2CCC(N[C@@H](CC(C)C)C(=O)OC(C)(C)C)CC2)sc1-c1ccc(Cl)c(S(C)(=O)=O)c1 (stereo partly drawn) [Example 19, tert-Butyl N-{4-[({5-[4-chloro-3-(methylsulfonyl)phenyl]-4-methyl-1,3-thiazol-2-yl}amino)methyl]cyclohexyl}-L-leucinate] |  | > 1 | > 1
12 | CC(=O)Nc1nc(C)c(-c2ccc(Cl)c(S(=O)(=O)N[C@@H](C)C(=O)OC3CCCC3)c2)s1 [Example 20, Cyclopentyl N-{[5-(2-acetamido-4-methyl-1,3-thiazol-5-yl)-2-chlorophenyl]sulfonyl}-L-alaninate] |  | < 0.1 | > 1
